Reference: article PMC9381536, “Non-apoptotic cell death induction via sapogenin based supramolecular particles” (Scientific Reports, 2022)

Columns and labels:
HCC1937 cells = experiment: Cytotoxicity of 220 nm filtrates; assay type: cell-based
Description: Figure 1 AG-08 mediated cytotoxicity relies on the supramolecular structures. (A) Structure of AG-08. (B) The scanning transmission electron micrograph of 16 µM AG-08 in PBS. Figure is a representative image of stained sample with uranyl acetate (5683 × magnification; scale bar 600 nm). (C) After 3 h incubation of Nile red solution with AG-08 or AG, fluorescence intensity of Nile red was measured. (D) AG-08, Staurosporine (Sta) or vehicle samples prepared in the cell condition medium was filtrated by 220 nm filter and HCC1937 cells were exposed to the filtrates. After 24 h, the viability of cells was measured and represented as a percentage of that of the vehicle control. The error bars represent mean value ± s.d. (n = 3). *p < 0.05, **p < 0.005, ***p < 0.001. (E) Tween 20 (1:40,000) was added to the fresh medium before addition of 8 μM AG-08 or vehicle. Then cell medium was replaced with this fresh medium. Cell viability was detected after 24 h incubation. […] TEXT PRINTED IN THE PICTURE: (F) no label printed: Diameter: 153.2±4.6; polydispersity index: 0.218
To verify that the activity of AG-08 arises from its supramolecular structures, freshly prepared AG-08 solutions were filtered using 220 nm-filters to remove AG-08 supramolecular particles from medium, and the filtrates were analyzed for their cytotoxicity. […] Next, Tween-20 was utilized as a non-ionic detergent to block particle formation, and AG-08-mediated cell death was inhibited as expected (Fig. 1E). […]

[1] = tested on: differentially expressed genes; experiment: Microarray gene expression analysis (human Clariom D); assay type: cell-based
Description: To investigate the overall cellular response to AG-08 treatment, microarray gene expression analysis of cells treated with vehicle and AG-08 treated groups was performed. […] Next, protein–protein interaction (PPI) network analysis was evaluated by the STRING (Search Tool for the Retrieval of Interacting Genes/Proteins) network. There were 61 nodes and 145 edges in the network (PPI enrichment p-value < 1 × 10^–16). […] Then, enrichment was performed using GO and KEGG pathway analyses.
Microarray analyses were conducted using the human Clariom D Affymetrix platform following the manufacturer’s instructions (902915, Thermo Fisher Scientific). Briefly, the total RNA was isolated using Total RNA Isolation Kit (Bio-Rad, US). Isolated total RNA was amplified, labeled, and hybridized on Clariom D Affymetrix platform. The arrays were stained by using GeneChip Fluidics Station 450. The cartridge was scanned with the GeneChip Scanner 3000 7G System (Affymetrix CA, USA).

[2] = fold change ≥ 3.0, p-value ≤ 0.05

## Cc1ccc(S(=O)(=O)OC2CCC3(C)C4=CCC5(C)C(C6(C)CCC(C(C)(C)O)O6)C(O)CC5(C)C4C=CC3C2(C)C)cc1 (stereo not shown) [AG-08]
HCC1937 cells
  cytotoxicity of filtrate after 220 nm filtration: no longer exhibited any cytotoxicity
[1]; AC006548.19, control 6.1
  Gene expression level (Log2): 4.15 Log2
[1]; AC068797.1, control 6.72
  Gene expression level (Log2): 4.17 Log2
[1]; AC079949.1, control 5.75
  Gene expression level (Log2): 7.8 Log2
[1]; ACSM3, control 6.76
  Gene expression level (Log2): 4.97 Log2
[1]; AKAP12, control 6.27
  Gene expression level (Log2): 9.04 Log2
[1]; AL161626.1, control 2.85
  Gene expression level (Log2): 4.86 Log2
[1]; ATF3, control 5.19
  Gene expression level (Log2): 7.04 Log2
[1]; CCL20, control 12.58
  Gene expression level (Log2): 15.79 Log2
[1]; CHAC1, control 7.22
  Gene expression level (Log2): 9.98 Log2
[1]; CREB5, control 8.35
  Gene expression level (Log2): 11.14 Log2
[1]; CSF3, control 3.29
  Gene expression level (Log2): 5.21 Log2
[1]; CSRNP1, control 5.26
  Gene expression level (Log2): 7.09 Log2
[1]; CXCL2, control 8.19
  Gene expression level (Log2): 10.58 Log2
[1]; CXCL3, control 6.99
  Gene expression level (Log2): 9.67 Log2
[1]; CXCL8, control 9.63
  Gene expression level (Log2): 12.86 Log2
[1]; DAW1, control 4.73
  Gene expression level (Log2): 7.07 Log2
[1]; DDIT3, control 5.64
  Gene expression level (Log2): 8.56 Log2
[1]; DNAJB9, control 8.13
  Gene expression level (Log2): 10.33 Log2
[1]; DUSP1, control 10.95
  Gene expression level (Log2): 12.84 Log2
[1]; ERO1B, control 6.9
  Gene expression level (Log2): 8.83 Log2
[1]; ETS1, control 11.21
  Gene expression level (Log2): 13.17 Log2
[1]; FGF5, control 4.09
  Gene expression level (Log2): 6.46 Log2
[1]; FRMD6, control 7.12
  Gene expression level (Log2): 9.43 Log2
[1]; GADD45A, control 11.09
  Gene expression level (Log2): 13.43 Log2
[1]; GEM, control 4.45
  Gene expression level (Log2): 6.45 Log2
[1]; HERPUD1, control 13.87
  Gene expression level (Log2): 15.89 Log2
[1]; HSP90B1, control 8.38
  Gene expression level (Log2): 10.67 Log2
[1]; HSPA1A, control 13.53
  Gene expression level (Log2): 15.75 Log2
[1]; HSPA7, control 4.94
  Gene expression level (Log2): 7.45 Log2
[1]; IL1A, control 10.2
  Gene expression level (Log2): 12.9 Log2
[1]; IL1RL1, control 6.82
  Gene expression level (Log2): 10.06 Log2
[1]; IL6, control 9.32
  Gene expression level (Log2): 11.97 Log2
[1]; JUN, control 10.47
  Gene expression level (Log2): 12.32 Log2
[1]; KRT5, control 11.75
  Gene expression level (Log2): 9.49 Log2
[1]; LRRC49, control 6.77
  Gene expression level (Log2): 8.59 Log2
[1]; MAP1B, control 7.26
  Gene expression level (Log2): 9.32 Log2
[1]; MIR1284, control 5.93
  Gene expression level (Log2): 3.95 Log2
[1]; MIR6515, control 4.75
  Gene expression level (Log2): 6.96 Log2
[1]; NR4A1, control 6.63
  Gene expression level (Log2): 8.84 Log2
[1]; PTGS2, control 9.7
  Gene expression level (Log2): 11.9 Log2
[1]; RCAN1, control 11.4
  Gene expression level (Log2): 13.43 Log2
[1]; RN7SKP36, control 4.9
  Gene expression level (Log2): 6.69 Log2
[1]; RNA18S5, control 10
  Gene expression level (Log2): 12.08 Log2
[1]; RNU11-6P, control 5.74
  Gene expression level (Log2): 3.79 Log2
[1]; RP5-1180E21.5, control 9.91
  Gene expression level (Log2): 7.94 Log2
[1]; RP11-74J13.9, control 5.92
  Gene expression level (Log2): 3.93 Log2
[1]; RP11-253I19.3, control 5.74
  Gene expression level (Log2): 3.7 Log2
[1]; RP11-632K20.8, control 8.77
  Gene expression level (Log2): 6.86 Log2
[1]; SERPINE1, control 7.07
  Gene expression level (Log2): 9.03 Log2
[1]; SIRPG-AS1, control 6.81
  Gene expression level (Log2): 4.97 Log2
[1]; SPRR2A, control 6.12
  Gene expression level (Log2): 8.31 Log2
[1]; SPRY4, control 4.5
  Gene expression level (Log2): 6.6 Log2
[1]; TNFAIP3, control 12.92
  Gene expression level (Log2): 15.77 Log2
[1]; TNFAIP6, control 7.73
  Gene expression level (Log2): 10.32 Log2
[1]; TNFRSF9, control 6.22
  Gene expression level (Log2): 8.07 Log2
[1]; UPR gene ATF3
  Fold changes: 3.61
[1]; UPR gene CXCL8
  Fold changes: 9.38
[1]; UPR gene DAW1
  Fold changes: 5.06
[1]; UPR gene DDIT3 (CHOP)
  Fold changes: 7.57
[1]; UPR gene DNAJB9
  Fold changes: 4.59
[1]; UPR gene HERPUD1
  Fold changes: 4.06
[1]; UPR gene HSP90B1
  Fold changes: 4.89
[1]; UPR gene HYOU1
  Fold changes: 3.14
[1]; Y_RNA, control 2.96
  Gene expression level (Log2): 4.88 Log2
[1]; beyly, control 5.86
  Gene expression level (Log2): 3.88 Log2
[1]; bonawbu, control 6.42
  Gene expression level (Log2): 4.47 Log2
[1]; borflaw, control 4.1
  Gene expression level (Log2): 6.24 Log2
[1]; cheeju, control 7.11
  Gene expression level (Log2): 4.53 Log2
[1]; chergy, control 8.48
  Gene expression level (Log2): 6.6 Log2
[1]; chostarby, control 9.01
  Gene expression level (Log2): 6.86 Log2
[1]; choygey, control 9.26
  Gene expression level (Log2): 11.85 Log2
[1]; dymabu, control 7.28
  Gene expression level (Log2): 4.94 Log2
[1]; ferchor, control 6.47
  Gene expression level (Log2): 4.51 Log2
[1]; floynabo, control 3.01
  Gene expression level (Log2): 5.07 Log2
[1]; flyleyby, control 5.79
  Gene expression level (Log2): 3.87 Log2
[1]; flyspabu, control 6.68
  Gene expression level (Log2): 4.45 Log2
[1]; [2]
  number of genes downregulated: 115
  number of genes significantly affected: 193
  number of genes upregulated: 78
[1]; glupuby, control 8.3
  Gene expression level (Log2): 6.47 Log2
[1]; guzobu, control 4.94
  Gene expression level (Log2): 3.12 Log2
[1]; hunimo, control 2.97
  Gene expression level (Log2): 4.9 Log2
[1]; jawrubu, control 6.99
  Gene expression level (Log2): 4.94 Log2
[1]; keyfybu, control 6.35
  Gene expression level (Log2): 4.42 Log2
[1]; klobly, control 8.49
  Gene expression level (Log2): 6.7 Log2
[1]; kluky, control 6.37
  Gene expression level (Log2): 4.18 Log2
[1]; leeklerbu, control 4.21
  Gene expression level (Log2): 2.34 Log2
[1]; mazybu, control 5.07
  Gene expression level (Log2): 3.22 Log2
[1]; muneme, control 5.09
  Gene expression level (Log2): 3.26 Log2
[1]; myklar, control 6.22
  Gene expression level (Log2): 4.37 Log2
[1]; plergler, control 8.38
  Gene expression level (Log2): 5.85 Log2
[1]; rersharbu, control 8.82
  Gene expression level (Log2): 6.82 Log2
[1]; runara, control 7
  Gene expression level (Log2): 4.96 Log2
[1]; skaskoyby, control 8.54
  Gene expression level (Log2): 6.69 Log2
[1]; skeymeybo, control 4.08
  Gene expression level (Log2): 5.88 Log2
[1]; skoytoyby, control 3.86
  Gene expression level (Log2): 5.73 Log2
[1]; slorfley, control 5.24
  Gene expression level (Log2): 3.4 Log2
[1]; slukeebu, control 7.87
  Gene expression level (Log2): 5.7 Log2
[1]; snawperbu, control 10.99
  Gene expression level (Log2): 8.51 Log2
[1]; sneykleebu, control 7.89
  Gene expression level (Log2): 5.94 Log2
[1]; spaforby, control 10.31
  Gene expression level (Log2): 8.45 Log2
[1]; sparsloy, control 9.51
  Gene expression level (Log2): 7.2 Log2
[1]; spernawbo, control 7.18
  Gene expression level (Log2): 5.32 Log2
[1]; sportobo, control 11.14
  Gene expression level (Log2): 9.07 Log2
[1]; steybleebu, control 9.69
  Gene expression level (Log2): 7.5 Log2
[1]; swawchu, control 12.82
  Gene expression level (Log2): 10.51 Log2
[1]; sworkaby, control 2.37
  Gene expression level (Log2): 4.69 Log2
[1]; swyjee, control 7.88
  Gene expression level (Log2): 6.02 Log2
[1]; teesnarby, control 5.92
  Gene expression level (Log2): 4.07 Log2
[1]; vybu, control 2.47
  Gene expression level (Log2): 4.27 Log2
[1]; vyglabu, control 2.86
  Gene expression level (Log2): 4.99 Log2
